Measurements from paper PMC3445516 (PLoS ONE, 2012).

How the values were obtained:
Experiment in all cases: Ambit kinase profiling, competition binding
FGFR1 = molecular target: T1, FGFR1 (Homo sapiens, UniProt P11362); conditions: compound concentration 10 uM, read-out: Percent Competition
T1 construct: purchased Ambit Biosciences (KINOMEscan)
From the text: (§1) Supplement pone.0044653.s004.xls, sheet "Compound 122" | column: Percent Competition

MKNK2 = molecular target: T2, MKNK2 (Homo sapiens, UniProt Q9HBH9); conditions: compound concentration 10 uM, read-out: Percent Competition
T2 construct: purchased Ambit Biosciences (KINOMEscan)
From the text: as §1

MARK1 = molecular target: T3, MARK1 (Homo sapiens, UniProt Q9P0L2); conditions: compound concentration 10 uM, read-out: Percent Competition
T3 construct: purchased Ambit Biosciences (KINOMEscan)
From the text: as §1

CSNK2A1 = molecular target: T4, CSNK2A1 (Homo sapiens, UniProt P68400); conditions: compound concentration 10 uM, read-out: Percent Competition
T4 construct: purchased Ambit Biosciences (KINOMEscan)
From the text: as §1

FES = molecular target: T5, FES (Homo sapiens, UniProt P07332); conditions: compound concentration 10 uM, read-out: Percent Competition
T5 construct: purchased Ambit Biosciences (KINOMEscan)
From the text: as §1

ULK3 = molecular target: T6, ULK3 (Homo sapiens, UniProt Q6PHR2); conditions: compound concentration 10 uM
T6 construct: purchased Ambit Biosciences (KINOMEscan)
From the text: as §1

PAK3 = molecular target: T7, PAK3 (Homo sapiens, UniProt O75914); conditions: compound concentration 10 uM, read-out: Percent Competition
T7 construct: purchased Ambit Biosciences (KINOMEscan)
From the text: as §1

RIPK1 = molecular target: T8, RIPK1 (Homo sapiens, UniProt Q13546); conditions: compound concentration 10 uM, read-out: Percent Competition
T8 construct: purchased Ambit Biosciences (KINOMEscan)
From the text: as §1

CDKL2 = molecular target: T9, CDKL2 (Homo sapiens, UniProt Q92772); conditions: compound concentration 10 uM, read-out: Percent Competition
T9 construct: purchased Ambit Biosciences (KINOMEscan)
From the text: as §1

PIK3CG = molecular target: T10, PIK3CG (Homo sapiens, UniProt P48736); conditions: compound concentration 10 uM, read-out: Percent Competition
T10 construct: purchased Ambit Biosciences (KINOMEscan)
From the text: as §1

LIMK2 = molecular target: T11, LIMK2 (Homo sapiens, UniProt P53671); conditions: compound concentration 10 uM, read-out: Percent Competition
T11 construct: purchased Ambit Biosciences (KINOMEscan)
From the text: as §1

SRPK3 = molecular target: T12, SRPK3 (Homo sapiens, UniProt Q9UPE1); conditions: compound concentration 10 uM, read-out: Percent Competition
T12 construct: purchased Ambit Biosciences (KINOMEscan)
From the text: as §1

RIOK3 = molecular target: T13, RIOK3 (Homo sapiens, UniProt O14730); conditions: compound concentration 10 uM, read-out: Percent Competition
T13 construct: purchased Ambit Biosciences (KINOMEscan)
From the text: as §1

EPHB2 = molecular target: T14, EPHB2 (Homo sapiens, UniProt P29323); conditions: compound concentration 10 uM
T14 construct: purchased Ambit Biosciences (KINOMEscan)
From the text: as §1

ACVR2A = molecular target: T15, ACVR2A (Homo sapiens, UniProt P27037); conditions: compound concentration 10 uM, read-out: Percent Competition
T15 construct: purchased Ambit Biosciences (KINOMEscan)
From the text: as §1

SIK = molecular target: T16, SIK (Homo sapiens, UniProt P57059); conditions: compound concentration 10 uM
T16 construct: purchased Ambit Biosciences (KINOMEscan)
From the text: as §1

ZAP70 = molecular target: T17, ZAP70 (Homo sapiens, UniProt P43403); conditions: compound concentration 10 uM, read-out: Percent Competition
T17 construct: purchased Ambit Biosciences (KINOMEscan)
From the text: as §1

FLT3(N841I) = molecular target: T18, FLT3(N841I) (Homo sapiens, UniProt P36888, N841I); conditions: compound concentration 10 uM, read-out: Percent Competition
T18 construct: purchased Ambit Biosciences (KINOMEscan)
From the text: as §1

MYLK2 = molecular target: T19, MYLK2 (Homo sapiens, UniProt Q9H1R3); conditions: compound concentration 10 uM, read-out: Percent Competition
T19 construct: purchased Ambit Biosciences (KINOMEscan)
From the text: as §1

PIM1 = molecular target: T20, PIM1 (Homo sapiens, UniProt P11309); conditions: compound concentration 10 uM, read-out: Percent Competition
T20 construct: purchased Ambit Biosciences (KINOMEscan)
From the text: as §1

CDC2L1 = molecular target: T21, CDC2L1 (Homo sapiens, UniProt P21127); conditions: compound concentration 10 uM, read-out: Percent Competition
T21 construct: purchased Ambit Biosciences (KINOMEscan)
From the text: as §1

PIK3CA(E545K) = molecular target: T22, PIK3CA(E545K) (Homo sapiens, UniProt P42336, E545K); conditions: compound concentration 10 uM, read-out: Percent Competition
T22 construct: purchased Ambit Biosciences (KINOMEscan)
From the text: as §1

MINK = molecular target: T23, MINK (Homo sapiens, UniProt Q8N4C8); conditions: compound concentration 10 uM, read-out: Percent Competition
T23 construct: purchased Ambit Biosciences (KINOMEscan)
From the text: as §1

AXL = molecular target: T24, AXL (Homo sapiens, UniProt P30530); conditions: compound concentration 10 uM, read-out: Percent Competition
T24 construct: purchased Ambit Biosciences (KINOMEscan)
From the text: as §1

FYN = molecular target: T25, FYN (Homo sapiens, UniProt P06241); conditions: compound concentration 10 uM, read-out: Percent Competition
T25 construct: purchased Ambit Biosciences (KINOMEscan)
From the text: as §1

DRAK2 = molecular target: T26, DRAK2 (Homo sapiens, UniProt O94768); conditions: compound concentration 10 uM, read-out: Percent Competition
T26 construct: purchased Ambit Biosciences (KINOMEscan)
From the text: as §1

MYO3A = molecular target: T27, MYO3A (Homo sapiens, UniProt Q8NEV4); conditions: compound concentration 10 uM, read-out: Percent Competition
T27 construct: purchased Ambit Biosciences (KINOMEscan)
From the text: as §1

AMPK-alpha2 = molecular target: T28, AMPK-alpha2 (Homo sapiens, UniProt P54646); conditions: compound concentration 10 uM, read-out: Percent Competition
T28 construct: purchased Ambit Biosciences (KINOMEscan)
From the text: as §1

PDPK1 = molecular target: T29, PDPK1 (Homo sapiens, UniProt O15530); conditions: compound concentration 10 uM, read-out: Percent Competition
T29 construct: purchased Ambit Biosciences (KINOMEscan)
From the text: as §1

SRPK2 = molecular target: T30, SRPK2 (Homo sapiens, UniProt P78362); conditions: compound concentration 10 uM, read-out: Percent Competition
T30 construct: purchased Ambit Biosciences (KINOMEscan)
From the text: as §1

PLK3 = molecular target: T31, PLK3 (Homo sapiens, UniProt Q9H4B4); conditions: compound concentration 10 uM, read-out: Percent Competition
T31 construct: purchased Ambit Biosciences (KINOMEscan)
From the text: as §1

AKT3 = molecular target: T32, AKT3 (Homo sapiens, UniProt Q9Y243); conditions: compound concentration 10 uM, read-out: Percent Competition
T32 construct: purchased Ambit Biosciences (KINOMEscan)
From the text: as §1

ARK5 = molecular target: T33, ARK5 (Homo sapiens, UniProt O60285); conditions: compound concentration 10 uM
T33 construct: purchased Ambit Biosciences (KINOMEscan)
From the text: as §1

MST1R = molecular target: T34, MST1R (Homo sapiens, UniProt Q04912); conditions: compound concentration 10 uM, read-out: Percent Competition
T34 construct: purchased Ambit Biosciences (KINOMEscan)
From the text: as §1

NEK2 = molecular target: T35, NEK2 (Homo sapiens, UniProt P51955); conditions: compound concentration 10 uM, read-out: Percent Competition
T35 construct: purchased Ambit Biosciences (KINOMEscan)
From the text: as §1

PHKG1 = molecular target: T36, PHKG1 (Homo sapiens, UniProt Q16816); conditions: compound concentration 10 uM, read-out: Percent Competition
T36 construct: purchased Ambit Biosciences (KINOMEscan)
From the text: as §1

[1] = molecular target: T37, RPS6KA2(Kin.Dom.1-N-terminal) (Homo sapiens, UniProt Q15349); conditions: compound concentration 10 uM, read-out: Percent Competition
T37 construct: RPS6KA2(Kin.Dom.1-N-terminal); purchased Ambit Biosciences (KINOMEscan)
From the text: as §1

IKK-epsilon = molecular target: T38, IKK-epsilon (Homo sapiens, UniProt Q14164); conditions: compound concentration 10 uM, read-out: Percent Competition
T38 construct: purchased Ambit Biosciences (KINOMEscan)
From the text: as §1

ABL1(Q252H) = molecular target: T39, ABL1(Q252H) (Homo sapiens, UniProt P00519, Q252H); conditions: compound concentration 10 uM, read-out: Percent Competition
T39 construct: purchased Ambit Biosciences (KINOMEscan)
From the text: as §1

FAK = molecular target: T40, FAK (Homo sapiens, UniProt Q05397); conditions: compound concentration 10 uM, read-out: Percent Competition
T40 construct: purchased Ambit Biosciences (KINOMEscan)
From the text: as §1

DAPK3 = molecular target: T41, DAPK3 (Homo sapiens, UniProt O43293); conditions: compound concentration 10 uM, read-out: Percent Competition
T41 construct: purchased Ambit Biosciences (KINOMEscan)
From the text: as §1

FGR = molecular target: T42, FGR (Homo sapiens, UniProt P09769); conditions: compound concentration 10 uM, read-out: Percent Competition
T42 construct: purchased Ambit Biosciences (KINOMEscan)
From the text: as §1

Fc1ccc(-c2c(-c3ccncc3)[nH]c3nccnc23)cc1 [RO1155697-000-005]
<50%: Percent Competition (ULK3) | Percent Competition (EPHB2) | Percent Competition (SIK) | Percent Competition (ARK5)
91%: inhibition at 10 µM (CDC2L1)
< 50%: inhibition at 10 µM (FGFR1) | inhibition at 10 µM (MKNK2) | inhibition at 10 µM (MARK1) | inhibition at 10 µM (CSNK2A1) | inhibition at 10 µM (FES) | inhibition at 10 µM (PAK3) | inhibition at 10 µM (RIPK1) | inhibition at 10 µM (CDKL2) | inhibition at 10 µM (PIK3CG) | inhibition at 10 µM (LIMK2) | inhibition at 10 µM (SRPK3) | inhibition at 10 µM (RIOK3) | inhibition at 10 µM (ACVR2A) | inhibition at 10 µM (ZAP70) | inhibition at 10 µM (FLT3(N841I)) | inhibition at 10 µM (MYLK2) | inhibition at 10 µM (PIM1) | inhibition at 10 µM (PIK3CA(E545K)) | inhibition at 10 µM (MINK) | inhibition at 10 µM (AXL) | inhibition at 10 µM (FYN) | inhibition at 10 µM (DRAK2) | inhibition at 10 µM (MYO3A) | inhibition at 10 µM (AMPK-alpha2) | inhibition at 10 µM (PDPK1) | inhibition at 10 µM (SRPK2) | inhibition at 10 µM (PLK3) | inhibition at 10 µM (AKT3) | inhibition at 10 µM (MST1R) | inhibition at 10 µM (NEK2) | inhibition at 10 µM (PHKG1) | inhibition at 10 µM [1] | inhibition at 10 µM (IKK-epsilon) | inhibition at 10 µM (ABL1(Q252H)) | inhibition at 10 µM (FAK) | inhibition at 10 µM (DAPK3) | inhibition at 10 µM (FGR)
